Measured values taken from US20260184675A1, “CHIRAL ISOMERIC SULFITE COMPOUND AND APPLICATION THEREOF” (Chengdu Hanova BioSciences Co., Ltd, priority 2024, published 2026).

Test system: eggs of Tetranychus cinnabarinus
Assay: Effects of sulfite compounds 1-30 and 1′-30′ on hatching of eggs of Tetranychus cinnabarinus at 100 ppm, leaf disc method
Type: in vivo
Settings: 7 days after insecticide delivery
Experimental: • (1) Preparation of leaf discs containing eggs: 20 female adult mites of Tetranychus cinnabarinus were transferred onto leaf discs of Vicia faba with a diameter of 2.0 cm (with wetted filter paper at the bottom), then covered it with a lidded culture dish and cultivated under moisturizing conditions, the adult mites were removed within 36 hours and microscopic examination and counting were performed on leaf discs containing eggs. • (2) Investigation of egg population base: Before pesticide soaking, a microscopic examination was conducted on the egg basic number of each leaf disc, with 2 replicates set for each treatment. • (3) Pesticide soaking treatment: The leaf butterflies loaded with mite eggs were soaked in clear water and sulfite compounds for 10 seconds, respectively, then taken out and cultivated under moisturizing conditions. Each treatment should be repeated for no less than 3 times. • (4) Cultivation and observation: The […] were cultivated under normal conditions. Five days after insecticide delivery, the hatching status of mite eggs was investigated. • Note: The temperature and humidity conditions of the constant temperature and humidity incubator after the treatment should be controlled so as to avoid excessive temperature differences, which may cause generation and dripping of condensate water in the culture dish, resulting in abnormal death of eggs due to soaking in water; it is also necessary to ensure sufficient strong ambient light, without directing irradiating the leaves. • (5) Survey of Results: The experimental materials of each treatment group were regularly hydrated and moisturized, and the hatching of eggs was observed. On the 7th day after insecticide delivery, the number of hatched eggs for each treatment was recorded, and the survey of results was recorded in the original notebook. According to the experimental requirements and characteristics of agents, the survey time can be shortened or extended.
• 1) Surveying and recording the number of hatched eggs for each treatment. • 2) Photographing and recording whether there was any pesticide damage to the leaf discs of Vicia faba. • 3) Recording the developmental status of experimental mite eggs, behavior status of nymph mites, including abnormal phenomena such as delayed or stopped development of mite eggs, difficulty in breaking hull for nymph mites, or painful struggles after hatching, etc. • (6) Calculation method: Based on the survey data, the prevention and control effect of each treatment was calculated according to the following formula, and the calculation results were kept to two decimal places. […]

SMILES | Hatching rate (%), Replicate 2 (replicate 2) | Hatching rate (%), Replicate 3
CC(COS(=O)OCCF)Oc1cc(Cl)ccc1Cl (stereo not shown) [Compound 7] | 8.15% | 
CC(C)(COS(=O)OCCBr)Oc1ccc(Cl)cc1Cl (stereo not shown) [Compound 12′] |  | 10.39%
O=C(OCCF)OC1COCC1Oc1ccc(Cl)cc1Cl (stereo not shown) [Compound 25] |  | 0.00%
CC(COc1cc(Cl)ccc1Cl)OS(=O)OCCBr (stereo not shown) [Compound 9′] |  | 15.15%
